Source: PubChem BioAssay (NCI)
“And” between values parts separate entries of the source, which are not always exact repeats. Equal entries are not always repeated.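 Assay format: 96-well plates, 48-hour exposure. GI50 = concentration required for 50% inhibition of growth. TGI denotes the concentration required for complete inhibition of growth.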

Key:
Test in all cases: NCI tumour cell line growth inhibition, 48 h
NCI/ADR-RES ovarian = tested on: NCI/ADR-RES ovarian
SK-MEL-5 melanoma = tested on: SK-MEL-5 melanoma
SR leukemia = tested on: SR leukemia
A498 renal = tested on: A498 renal
U251 CNS = tested on: U251 CNS
OVCAR-5 ovarian = tested on: OVCAR-5 ovarian
SF-295 CNS = tested on: SF-295 CNS
SNB-19 CNS = tested on: SNB-19 CNS
SNB-75 CNS = tested on: SNB-75 CNS
HL-60(TB) leukemia = tested on: HL-60(TB) leukemia

Row | SMILES | TGI (NCI/ADR-RES ovarian) | TGI (SK-MEL-5 melanoma) | TGI (SR leukemia) | TGI (A498 renal) | TGI (U251 CNS) [µM] | TGI (OVCAR-5 ovarian) [µM] | TGI (SF-295 CNS) | TGI (SNB-19 CNS) [µM] | TGI (SNB-75 CNS) | TGI (HL-60(TB) leukemia) | GI50 (NCI/ADR-RES ovarian) | GI50 (SK-MEL-5 melanoma) | GI50 (SR leukemia) | GI50 (A498 renal) | GI50 (U251 CNS) | GI50 (OVCAR-5 ovarian) | GI50 (SF-295 CNS) | GI50 (SNB-19 CNS) | GI50 (SNB-75 CNS) | GI50 (HL-60(TB) leukemia)
1 | O=[N+]([O-])c1ccc(NN=C2c3ccccc3Cc3ccccc32)c([N+](=O)[O-])c1 | > 100 µM | > 100 µM | 11.5 µM | > 100 µM | > 100 | > 100 | > 100 µM | > 100 | 75.1 µM | > 30 µM |  |  |  |  |  |  |  |  |  | 
2 | COc1cccc2cc(-c3nc(C4CCC(C(=O)O)CC4)n4ncnc(N)c34)[nH]c12 (centres undefined) | 10.3 µM and > 10 µM | 4.19 µM and 5.7 µM | > 36.3 µM | 0.407 µM and 0.365 µM | > 100 | > 100 | 2.1 µM and 4.36 µM | > 100 | 1.03 µM and 1.3 µM | 25.7 µM and > 10 µM | 0.406 µM and 0.804 µM | 0.313 µM and 0.79 µM | 295 nM and 310 nM | 67.7 nM and 60.1 nM | 0.666 µM and 1.26 µM | 0.289 µM and 0.658 µM | 0.233 µM and 0.647 µM | 1.34 µM and 1.49 µM | 0.0952 µM and 0.152 µM | 3130 nM and > 3550 nM
3 | COc1ccc2c(c1)c(-c1nc(-c3cn(C)c4ncccc34)cs1)cn2CCCCN1CCOCC1 | 5.05 µM | 3.06 µM | 1.98 µM | 1.78 µM | 2.93 | 4.03 | 3.48 µM | 3.49 | 2.67 µM | 4.37 µM | 1.72 µM | 1.67 µM | 724 nM | 164 nM | 1.25 µM | 1.68 µM | 1.57 µM | 1.65 µM | 0.873 µM | 1840 nM
4 | COc1cc(C(=O)Nc2cc(O)c(C/C=C(\C)CCC=C(C)C)c(O)c2)cc2c1O[C@]1(C)CC[C@@H](O)C(C)(C)[C@H]1C2 | > 76.4 µM | 2.1 µM and 3.99 µM | 7.2 µM and 5.93 µM | 1.72 µM and 0.889 µM | 6.15 | 21.6 | 0.0135 µM and 0.0515 µM | 26.4 | 7.56 µM |  | 9.22 µM and 6.62 µM | 0.177 µM and 0.631 µM | 38.2 nM and 21.9 nM | 62.3 nM and 25.8 nM | 0.00961 µM and < 0.0175 µM | 2.89 µM and 3.49 µM | 0.00307 µM and < 0.012 µM | 3.28 µM and 1.9 µM | 0.00898 µM and < 0.0111 µM | 7.16 nM and 69.9 nM
5 | CCNC(=O)c1ccc2c(c1)nc(-c1ccc(Cl)cc1)n2-c1cc(C(C)(C)C)[nH]n1 | 9.33 µM | 5.72 µM | 9.32 µM | 6.53 µM | 12.2 | 40.1 | 11.6 µM | > 100 | 12 µM | 7.6 µM | 2.54 µM | 1.54 µM | 1060 nM | 2240 nM | 3.28 µM | 5.91 µM | 2.82 µM | 3.97 µM | 2.17 µM | 2720 nM
6 | COC(=O)c1cc(NC(=O)CN(CCN(CC(=O)O)CC(=O)Nc2ccc(O)c(C(=O)OC)c2)CC(=O)O)ccc1O | > 100 µM | > 100 µM | 48.7 µM | > 100 µM | > 100 | > 100 | > 100 µM | > 100 | > 100 µM | > 100 µM | > 100 µM | 47.2 µM | 6060 nM | 71700 nM | 43.8 µM | > 100 µM | 25.8 µM | 41.9 µM | 55.3 µM | 42200 nM
7 | Nc1ncnc2c1c(C(=O)NO)cn2C1OC(CO)C(O)C1O (centres undefined) |  | 2.15 µM | 1.88 µM | 6.9 µM | > 100 |  | 1.13 µM | > 100 | 8.04 µM | 0.457 µM | 0.137 µM | 0.739 µM | 329 nM | 915 nM | 0.419 µM | 0.604 µM | 0.193 µM | 0.847 µM | 0.509 µM | 158 nM
8 | COc1cc(/C=N/Nc2ncnc3c2cnn3Cc2ccccc2)ccc1O | > 25 µM | > 25 µM | > 25 µM | > 25 µM | > 25 | > 25 | > 25 µM | > 25 | 11.4 µM | > 25 µM | 7.35 µM | 12.2 µM | > 25000 nM | > 18300 nM | 6.51 µM | > 25 µM | > 25 µM | 9.22 µM | 3.29 µM | > 18500 nM
9 | CNC(=O)c1c(NC(=O)c2ccc(C(C)C)cc2)sc2c1CCC(=O)C2 | 2.24 µM | 1.7 µM | 4.45 µM | 3.78 µM | 1.42 | 1.93 | 3.35 µM | 5.71 | 3.53 µM | 2.15 µM | 0.461 µM | 0.605 µM | 273 nM | 715 nM | 0.253 µM | 0.496 µM | 1.13 µM | 0.453 µM | 1.05 µM | 303 nM
10 | COc1ccc(NC(=O)CC(=O)n2nc(-c3ccccc3)c(N=Nc3ccccc3C)c2-c2ccccc2)cc1 | > 100 µM | > 86.5 µM | > 100 µM | 52.6 µM | 35.3 | > 100 | 45.6 µM | > 69.7 | 36.6 µM | > 100 µM |  |  |  |  |  |  |  |  |  | 
11 | O=C(Nc1cccc(-n2cc(-c3ccncc3)c(-c3ccc(O)c(Cl)c3)n2)c1)c1ccc(N2CCOCC2)c(C(F)(F)F)c1 | > 50 µM | > 50 µM | > 50 µM | > 50 µM | > 50 | > 50 | 4.32 µM | > 50 | > 50 µM | 3.15 µM | 4.24 µM | 1.75 µM | 1050 nM | > 50000 nM | 0.917 µM | > 50 µM | 1.24 µM | > 50 µM | 0.745 µM | 1200 nM
12 | CCCC(=O)Nc1ncnc2c1ncn2C1OC2COP(=O)(O)OC2C1OC(=O)CCC (centres undefined) | > 1000 µM | > 1000 µM | > 1000 µM | 92.8 µM | > 1000 | > 1000 | > 1000 µM | > 1000 | > 1000 µM | > 1000 µM | > 1000 µM | > 1000 µM |  |  | > 1000 µM | > 1000 µM | > 1000 µM | > 1000 µM | > 1000 µM | 
